# Experimental data taken from patent US20070072242A1, “Immunoassay method and kit to leucomalachite green and malachite green” (Randox Laboratories Limited, priority 2005, published 2007).
# How the values were obtained:
# [1] = system: Ig fraction of the antiserum raised to immunogen II (hapten A-BTG); assay: competitive ELISA microtiter plate assay, antiserum to immunogen II with conjugate I (hapten A-HRP); format: binding, sheep; settings: for % CR (percentage cross-reactivity based on specificity to leucomalachite green) / IC50 (standard concentration which produces 50% B/B0): Conjugate I (hapten A-HRP); for IC50 (standard concentration which produces 50% B/B0): 37° C. 2 hours; for % B/B0 / A450: Conjugate I
# Experimental: (§1) An aqueous solution of immunogen II was formulated with Freund's Complete Adjuvant (FCA) to form an emulsion consisting of 2 mg/ml immunogen in 50% (v/v) FCA. Three sheep were immunised with this emulsion (1° immunisation), 0.25 ml being intramuscularly injected at each of four sites in the rump of each animal. Subsequent immunizations (boosts) contained 1 mg/ml immunogen. All boosts were emulsified in 50% (v/v) Freund's Incomplete Adjuvant (FIA) and were administered in the same manner as the 1° immunisation, at monthly intervals for 1 year. Blood sampling took place 7 to 14 days after each boost. Each sample was processed to produce antiserum, which was further purified by caprylic acid and ammonium sulfate precipitation to yield an immunoglobulin (Ig) fraction. The Ig fraction was evaluated by competitive ELISA microtiter plate assay, as described in Example 12 below.
# (§2) The wells of an enhanced binding 96 well polystyrene microtiter plate were coated with the Ig fraction of the antiserum raised to immunogen II (hapten A-BTG) (Example 8), diluted in 10 mM Tris, pH8.5 (125 μl/well). The appropriate antibody coating dilution was determined using standard ELISA checkerboard techniques. The plate was incubated for 2 hours at 37° C., washed 4 times with Tris buffered saline containing Tween 20 (TBST) and tapped dry. Standard solutions of leucomalachite green and malachite green were prepared in TBST at 0, 5, 10, 50, 100, 250, 500 and 1000 ng/ml, and 50 μl of each was added to the appropriate wells (FIG. 8).
# 75 μl of conjugate I (hapten A-HRP) (Example 9), diluted in Tris buffer (pH 7.2) containing EDTA, D-mannitol, sucrose, thimerosal and BSA, was added to each of the wells, as shown in FIG. 8. The appropriate dilution of conjugate was also determined using standard ELISA checkerboard techniques. The plate was incubated at 37° C. for 2 hours. Excess unbound conjugate was removed by washing 6 times over a 10 minute period with TBST. 125 μl of tetramethylbenzidine (TMB) substrate solution was added to each well of the plate that was then incubated for 15 to 20 minutes in the dark at room temperature. The reaction was terminated by addition of 125 μl 0.2M H2SO4 to each well. The absorbance was then measured at 450 nm using a microtiter plate reader.
# [2] = system: Ig fraction of the antiserum raised to immunogen II (hapten A-BTG); assay: competitive ELISA microtiter plate assay, antiserum to immunogen II with Conjugate II (hapten C-HRP); format: binding, sheep; settings: for % CR (percentage cross-reactivity based on specificity to leucomalachite green) / IC50 (standard concentration which produces 50% B/B0): Conjugate II (hapten C-HRP); for IC50 (standard concentration which produces 50% B/B0): 25° C. 1 hour; for % B/B0 / A450: Conjugate II
# Experimental: as §1
# as §2, with “Standard solutions of leucomalachite green and malachite green were prepared in TBST at 0, 5, 10, 50, 100, 250, 500 and 1000 ng/ml, and 50 μl of each was added to the appropriate wells (FIG. 8).” left out
# 75 μl of conjugate C (hapten C-HRP) (Example 10), diluted in Tris buffer (pH 7.2) containing EDTA, D-mannitol, sucrose, thimerosal and BSA, was added to each of the wells, as shown in FIG. 8. The appropriate dilution of conjugate was also determined using standard ELISA checkerboard techniques.
# The plate was incubated at 25° C. for 1 hour. Excess unbound conjugate was removed by washing 6 times over a 10-15 minute period with TBST.
# 125 μl of tetramethylbenzidine (TMB) substrate solution was added to each well of the plate that was then incubated for 20 minutes in the dark at room temperature. The reaction was terminated by addition of 100 ul 0.2 M H2SO4 to each well. The absorbance was then measured at 450 nm using a microtiter plate reader.
# Bioo Kit antibodies = settings: information provided by Bioo Scientific; kit designed to detect malachite green only; cited from earlier work
# [3] = standard concentration 10 ng/ml
# [4] = standard concentration 50 ng/ml
# [5] = standard concentration 100 ng/ml
# [6] = standard concentration 250 ng/ml
# [7] = standard concentration 500 ng/ml
# [8] = standard concentration 1000 ng/ml
# [9] = standard concentration 0.5 ng/ml
SMILES,% CR (percentage cross-reactivity based on specificity to leucomalachite green) [1],IC50 (standard concentration which produces 50% B/B0) [1],% B/B0 ([1]; standard concentration 5 ng/ml),A450 ([1]; standard concentration 5 ng/ml),"% B/B0 [1, 3]","A450 [1, 3]","% B/B0 [1, 4]","A450 [1, 4]","% B/B0 [1, 5]","A450 [1, 5]","% B/B0 [1, 6]","A450 [1, 6]","% B/B0 [1, 7]","A450 [1, 7]","% B/B0 [1, 8]","A450 [1, 8]",% CR (percentage cross-reactivity based on specificity to leucomalachite green) [2],IC50 (standard concentration which produces 50% B/B0) [2],"% B/B0 [2, 9]","A450 [2, 9]",other results
"CN(C)c1ccc(C(c2ccccc2)c2ccc(N(C)C)cc2)cc1 [Leucomalachite Green, leucomalachite green]",100%,0.02733 µg/mL,76.0%,1.378,67.5%,1.225,42.0%,0.762,30.2%,0.547,20.2%,0.366,13.6%,0.247,9.8%,0.178,100%,0.00374 µg/mL,90%,1.550,"% B/B0 ([2]; standard concentration 1 ng/ml): 77%; A450 ([2]; standard concentration 1 ng/ml): 1.323; % B/B0 ([2]; standard concentration 5 ng/ml): 45%; A450 ([2]; standard concentration 5 ng/ml): 0.772; % B/B0 [2, 3]: 31%; A450 [2, 3]: 0.538; % B/B0 [2, 4]: 11%; A450 [2, 4]: 0.184; cross-reactivity (Bioo Kit antibodies): 1%"
"CN(C)c1ccc(C(=C2C=CC(=[N+](C)C)C=C2)c2ccccc2)cc1 [Malachite Green, malachite green]",26.43%,0.10339 µg/mL,85.2%,1.440,82.3%,1.392,63.6%,1.075,51.4%,0.869,39.3%,0.664,30.8%,0.520,24.6%,0.416,26.8%,0.013962 µg/mL,95%,1.611,"% B/B0 ([2]; standard concentration 1 ng/ml): 89%; A450 ([2]; standard concentration 1 ng/ml): 1.504; % B/B0 ([2]; standard concentration 5 ng/ml): 67%; A450 ([2]; standard concentration 5 ng/ml): 1.137; % B/B0 [2, 3]: 57%; A450 [2, 3]: 0.967; % B/B0 [2, 4]: 29%; A450 [2, 4]: 0.497; % B/B0 [2, 5]: 20%; A450 [2, 5]: 0.342; % B/B0 [2, 6]: 13%; A450 [2, 6]: 0.227; % B/B0 [2, 7]: 11%; A450 [2, 7]: 0.184; % B/B0 [2, 8]: 7%; A450 [2, 8]: 0.113"
